compound: C1CSC2=C(C(=O)N1)SC3=C2C=C(C=C3)O [kb NB 142-70] + CC1(C)CCC(c2ccc(Cl)cc2)=C(CN2CCN(c3ccc(C(=O)NS(=O)(=O)c4ccc(N[C@H](CCN5CCOCC5)CSc5ccccc5)c(S(=O)(=O)C(F)(F)F)c4)cc3)CC2)C1 [Navitoclax] (partner 0.5 µM); experiment: relative viability (nuclei count vs DMSO), 5 days (fraction); higher = more cells survive; settings: first compound 0.1 µM
In short: (§1)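 Relative viability divides the nuclei count in treated wells by that in vehicle wells. Lung cancer cell lines were seeded in 1536-well plates, dosed by pin tool the next day, and fixed and stained after 5 days in one step with final 0.05% Triton X-100, 1% formaldehyde and 1 ug/ml Hoechst. Dosing was a single drug or a fixed anchor-drug dose plus five library-drug doses (not always all listed) in √10 steps, and values are medians of duplicate plates imaged at 4×.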

Compared with NCI-H647, CAL-12T is higher in relative viability: 1.16 for the first, 1.34 for the second.

Going from NCI-H1651 to EPLC-272H, the relative viability rises from 1.07 to 1.26.

First: NCI-H2228
Second: NCI-H1792
The relative viability of the first is higher: 0.853 for the first, 0.604 for the second.

Compared with NCI-H1355, NCI-H3122 is lower in relative viability: 1.02 for the first, 0.987 for the second.

Going from NCI-H1437 to NCI-H1755, the relative viability falls from 1.05 to 0.996.

Going from NCI-H2023 to HCC-15, the relative viability falls from 0.983 to 0.683.

Going from NCI-H1793 to PC-14, the relative viability rises from 0.45 to 0.977.

Going from EKVX to LC-2-ad, the relative viability falls from 0.883 to 0.537.

First: NCI-H1944
Second: NCI-H1975
The relative viability of the first is lower: 1.07 for the first, 1.14 for the second.

Compared with RERF-LC-KJ, PC-3 [JPC-3] is lower in relative viability: 1.05 for the first, 0.745 for the second.

same assay, conditions: first compound 1 µM

Compared with NCI-H647, CAL-12T is lower in relative viability: 1.19 for the first, 1.16 for the second.

Going from NCI-H1651 to EPLC-272H, the relative viability rises from 1.03 to 1.13.

Going from NCI-H2228 to NCI-H1792, the relative viability falls from 0.992 to 0.619.

First: NCI-H1355
Second: NCI-H3122
The relative viability of the first is lower: 0.881 for the first, 1.04 for the second.

Going from NCI-H1437 to NCI-H1755, the relative viability falls from 1.13 to 1.01.

First: NCI-H2023
Second: HCC-15
The relative viability of the first is higher: 1 for the first, 0.683 for the second.

First: NCI-H1793
Second: PC-14
The relative viability of the first is lower: 0.455 for the first, 1.06 for the second.

First: EKVX
Second: LC-2-ad
The relative viability of the first is higher: 1.01 for the first, 0.473 for the second.

Going from NCI-H1944 to NCI-H1975, the relative viability rises from 1.05 to 1.15.

First: RERF-LC-KJ
Second: PC-3 [JPC-3]
The relative viability of the first is lower: 0.762 for the first, 0.807 for the second.

same assay, conditions: first compound 3.162 µM

First: NCI-H647
Second: CAL-12T
The relative viability of the first is lower: 0.842 for the first, 1.08 for the second.

Going from NCI-H1651 to EPLC-272H, the relative viability rises from 0.39 to 0.584.

Going from NCI-H2228 to NCI-H1792, the relative viability rises from 0.244 to 0.644.

First: NCI-H1355
Second: NCI-H3122
The relative viability of the first is lower: 0.936 for the first, 0.972 for the second.

Going from NCI-H1437 to NCI-H1755, the relative viability rises from 1.02 to 1.05.

Going from NCI-H2023 to HCC-15, the relative viability falls from 0.644 to 0.609.

Going from NCI-H1793 to PC-14, the relative viability rises from 0.24 to 0.96.

Compared with EKVX, LC-2-ad is lower in relative viability: 0.87 for the first, 0.262 for the second.

First: NCI-H1944
Second: NCI-H1975
The relative viability of the first is higher: 0.973 for the first, 0.761 for the second.

Compared with RERF-LC-KJ, PC-3 [JPC-3] is higher in relative viability: 0.468 for the first, 0.871 for the second.

compound: NCC(=O)Nc1ccc(-n2nc(C(F)(F)F)cc2-c2ccc3c(ccc4ccccc43)c2)cc1 + CC1(C)CCC(c2ccc(Cl)cc2)=C(CN2CCN(c3ccc(C(=O)NS(=O)(=O)c4ccc(N[C@H](CCN5CCOCC5)CSc5ccccc5)c(S(=O)(=O)C(F)(F)F)c4)cc3)CC2)C1 [Navitoclax] (partner 0.5 µM); experiment: as above; settings: first compound 0.02 µM
In short: as §1

Going from NCI-H647 to CAL-12T, the relative viability rises from 1.02 to 1.17.

Going from NCI-H1651 to EPLC-272H, the relative viability rises from 1.06 to 1.25.

First: NCI-H2228
Second: NCI-H1792
The relative viability of the first is higher: 1.14 for the first, 0.694 for the second.

First: NCI-H1355
Second: NCI-H3122
The relative viability of the first is lower: 0.921 for the first, 1.04 for the second.

Going from NCI-H1437 to NCI-H1755, the relative viability falls from 1.08 to 1.03.

Compared with NCI-H2023, HCC-15 is lower in relative viability: 1.05 for the first, 0.746 for the second.

Compared with NCI-H1793, PC-14 is higher in relative viability: 0.529 for the first, 1.1 for the second.

First: EKVX
Second: LC-2-ad
The relative viability of the first is higher: 0.902 for the first, 0.456 for the second.

Compared with NCI-H1944, NCI-H1975 is lower in relative viability: 1.06 for the first, 1.04 for the second.

Compared with RERF-LC-KJ, PC-3 [JPC-3] is lower in relative viability: 1.04 for the first, 0.765 for the second.

same assay, conditions: first compound 0.06325 µM

Compared with NCI-H647, CAL-12T is higher in relative viability: 1.02 for the first, 1.19 for the second.

Going from NCI-H1651 to EPLC-272H, the relative viability falls from 1.11 to 1.07.

Going from NCI-H2228 to NCI-H1792, the relative viability falls from 1.16 to 0.722.

Compared with NCI-H1355, NCI-H3122 is higher in relative viability: 0.895 for the first, 1.01 for the second.

NCI-H1437 was tested, and the relative viability was 1.12.
